According to patent US20230233569A1 (Revolution Medicines, Inc., priority 2020, published 2023):
pEC50, pIC50: −log10 of the molar value. Read-outs that look alike come from different tables or passages of the source.

How the values were obtained:
AsPC-1 (K-Ras G12D) [1] = assay: Potency assay: pERK; assay type: cell-based; conditions: Homo sapiens
AsPC-1 (K-Ras G12D) [2] = assay: CellTiter-Glo cell viability assay; assay type: cell-based; conditions: Homo sapiens, ASPC1, 120 h
Procedure, shortened: (§1)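 Percent-of-DMSO luminescence values (CellTiter-Glo, day 5, plates equilibrated ~30 minutes at ambient temperature) were curve-fitted using a 4-parameter logistic equation; compounds had been added straight into wells containing the cells.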

NCI-H358 (K-Ras G12C) = assay: CellTiter-Glo cell viability assay; assay type: cell-based; conditions: Homo sapiens, NCI-H358, 120 h
Procedure, shortened: as §1

KRAS G12S = KRAS G12S (Homo sapiens, UniProt P01116+P62937, G12S); assay: Ras-Raf disruption / FRET / MOA assay (BRAF RBD); assay type: biochemical; conditions: with Cyclophilin A
Procedure, shortened: (§2)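 Compound-induced Ras–Cyclophilin A ternary complex disrupting BRAF RBD binding, read as IC50 from reduced TR-FRET ratio relative to DMSO. Final: Ras-GMPPNP 12.5 nM, BRAF RBD 50 nM, Cyclophilin A 25 μM, top compound 30 μM (3-fold, 10 points); 3 h at 25 °C, then 1.5 h with detection antibodies.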

KRAS G12C = KRAS G12C (Homo sapiens, UniProt P01116+P62937, G12C); assay: Ras-Raf disruption / FRET / MOA assay (BRAF RBD); assay type: biochemical; conditions: with Cyclophilin A
Procedure, shortened: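 TR-FRET read-out after 1.5 h with anti-His Eu-W1024 (10 nM) and anti-GST APC (50 nM), following 3 h at 25 °C of compound (top 30 μM, 3-fold, 10 points) with 25 μM Cyclophilin A, 12.5 nM GMPPNP-loaded K-Ras G12C and 50 nM BRAF RBD; IC50 reported.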

KRAS G12D = KRAS G12D (Homo sapiens, UniProt P01116+P62937, G12D); assay: Ras-Raf disruption / FRET / MOA assay (BRAF RBD); assay type: biochemical; conditions: Ras-Raf disruption, with Cyclophilin A; read-out: KRAS G12D FRET data IC50
Procedure, shortened: as §2

KRAS G12V = KRAS G12V (Homo sapiens, UniProt P01116+P62937, G12V); assay: Ras-Raf disruption / FRET / MOA assay (BRAF RBD); assay type: biochemical; conditions: Ras-Raf disruption, with Cyclophilin A; read-out: KRAS G12V FRET data IC50
Procedure, shortened: as §2

KRAS G13C = KRAS G13C (Homo sapiens, UniProt P01116+P62937, G13C); assay: Ras-Raf disruption / FRET / MOA assay (BRAF RBD); assay type: biochemical; conditions: Ras-Raf disruption, with Cyclophilin A; read-out: KRAS G13C FRET data IC50
Procedure, shortened: as §2

KRAS G13D = KRAS G13D (Homo sapiens, UniProt P01116+P62937, G13D); assay: Ras-Raf disruption / FRET / MOA assay (BRAF RBD); assay type: biochemical; conditions: Ras-Raf disruption, with Cyclophilin A; read-out: KRAS G13D FRET data IC50
Procedure, shortened: as §2

KRAS Q61H = KRAS Q61H (Homo sapiens, UniProt P01116+P62937, Q61H); assay: Ras-Raf disruption / FRET / MOA assay (BRAF RBD); assay type: biochemical; conditions: KRAS Q61H; read-out: KRAS Q61H FRET data IC50
Procedure, shortened: as §2

KRAS WT = KRAS WT (Homo sapiens, UniProt P01116+P62937); assay: Ras-Raf disruption / FRET / MOA assay (BRAF RBD); assay type: biochemical; conditions: Ras-Raf disruption, with Cyclophilin A; read-out: KRAS WT FRET data IC50
Procedure, shortened: as §2

NRAS G12C = NRAS G12C (Homo sapiens, UniProt P01111+P62937, G12C); assay: Ras-Raf disruption / FRET / MOA assay (BRAF RBD); assay type: biochemical; conditions: NRAS G12C; read-out: NRAS G12C FRET data IC50
Procedure, shortened: as §2

NRAS Q61K = NRAS Q61K (Homo sapiens, UniProt P01111+P62937, Q61K); assay: Ras-Raf disruption / FRET / MOA assay (BRAF RBD); assay type: biochemical; conditions: NRAS Q61K; read-out: NRAS Q61K FRET data IC50
Procedure, shortened: as §2

NRAS Q61R = NRAS Q61R (Homo sapiens, UniProt P01111+P62937, Q61R); assay: Ras-Raf disruption / FRET / MOA assay (BRAF RBD); assay type: biochemical; conditions: NRAS Q61R; read-out: NRAS Q61R FRET data IC50
Procedure, shortened: as §2

NRAS WT = NRAS WT (Homo sapiens, UniProt P01111+P62937); assay: Ras-Raf disruption / FRET / MOA assay (BRAF RBD); assay type: biochemical; conditions: NRAS WT; read-out: NRAS WT FRET data IC50
Procedure, shortened: as §2

[3] = read-out: AsPC-1 Cell Viability assay data IC50, K-Ras G12D, 5-day treatment
[4] = read-out: H358 Cell Viability assay data IC50, K-Ras G12C, 5-day treatment
[5] = ASPC1, AsPC-1 KRAS G12D, read-out: pERK EC50
[6] = K-Ras G12D, 5-day treatment, read-out: AsPC-1 Cell Viability assay data IC50
[7] = K-Ras G12C, 5-day treatment, read-out: H358 Cell Viability assay data IC50

Sequence of KRAS G12C (P01116 1-169 isoform P01116-2 G12C limits assumed): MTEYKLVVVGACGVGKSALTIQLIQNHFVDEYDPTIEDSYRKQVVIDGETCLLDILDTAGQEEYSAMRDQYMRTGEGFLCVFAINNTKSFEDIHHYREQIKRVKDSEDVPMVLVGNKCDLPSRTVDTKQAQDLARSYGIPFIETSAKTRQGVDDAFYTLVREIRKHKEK
Sequence of KRAS G12C (P62937 whole entry): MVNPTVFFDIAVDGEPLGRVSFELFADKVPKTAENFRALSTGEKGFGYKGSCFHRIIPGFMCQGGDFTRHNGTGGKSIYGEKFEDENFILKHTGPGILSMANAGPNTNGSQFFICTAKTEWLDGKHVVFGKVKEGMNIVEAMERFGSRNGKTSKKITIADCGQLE
Sequence of KRAS G12S (P01116 1-169 isoform P01116-2 G12S limits assumed): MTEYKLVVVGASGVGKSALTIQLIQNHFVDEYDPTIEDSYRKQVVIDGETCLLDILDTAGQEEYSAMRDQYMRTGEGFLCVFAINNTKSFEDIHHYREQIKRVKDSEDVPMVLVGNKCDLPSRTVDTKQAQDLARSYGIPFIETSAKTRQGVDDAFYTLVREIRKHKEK
Sequence of KRAS G12S (P62937 whole entry): as the sequence (P62937 whole entry) above
Sequence of NRAS G12C (P01111 whole entry G12C): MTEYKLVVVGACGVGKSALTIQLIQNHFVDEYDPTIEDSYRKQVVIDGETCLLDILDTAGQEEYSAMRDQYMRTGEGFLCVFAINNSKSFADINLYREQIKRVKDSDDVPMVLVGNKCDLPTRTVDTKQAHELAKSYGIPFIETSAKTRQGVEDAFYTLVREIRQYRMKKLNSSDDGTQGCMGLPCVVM
Sequence of NRAS G12C (P62937 whole entry): as the sequence (P62937 whole entry) above
Sequence of NRAS Q61K (P01111 whole entry Q61K): as the sequence (P01111 whole entry G12C) above, with C12G, Q61K counted along it
Sequence of NRAS Q61K (P62937 whole entry): as the sequence (P62937 whole entry) above
Sequence of KRAS Q61H (P01116 1-169 isoform P01116-2 Q61H limits assumed): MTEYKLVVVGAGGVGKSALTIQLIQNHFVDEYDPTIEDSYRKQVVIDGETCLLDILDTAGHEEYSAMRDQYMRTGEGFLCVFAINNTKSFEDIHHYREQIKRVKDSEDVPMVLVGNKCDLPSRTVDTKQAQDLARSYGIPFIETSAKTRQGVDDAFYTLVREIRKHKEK
Sequence of KRAS Q61H (P62937 whole entry): as the sequence (P62937 whole entry) above
Sequence of KRAS G12D (P01116 1-169 isoform P01116-2 G12D limits assumed): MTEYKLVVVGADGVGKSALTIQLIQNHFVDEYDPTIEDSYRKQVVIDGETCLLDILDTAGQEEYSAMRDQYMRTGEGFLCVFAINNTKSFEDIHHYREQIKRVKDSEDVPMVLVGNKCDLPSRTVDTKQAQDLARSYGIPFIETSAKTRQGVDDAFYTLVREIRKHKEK
Sequence of KRAS G12D (P62937 whole entry): as the sequence (P62937 whole entry) above
Sequence of NRAS Q61R (P01111 whole entry Q61R): as the sequence (P01111 whole entry G12C) above, with C12G, Q61R counted along it
Sequence of NRAS Q61R (P62937 whole entry): as the sequence (P62937 whole entry) above
Sequence of NRAS WT (P01111 whole entry): as the sequence (P01111 whole entry G12C) above, with C12G counted along it
Sequence of NRAS WT (P62937 whole entry): as the sequence (P62937 whole entry) above
Sequence of KRAS G12V (P01116 1-169 isoform P01116-2 G12V limits assumed): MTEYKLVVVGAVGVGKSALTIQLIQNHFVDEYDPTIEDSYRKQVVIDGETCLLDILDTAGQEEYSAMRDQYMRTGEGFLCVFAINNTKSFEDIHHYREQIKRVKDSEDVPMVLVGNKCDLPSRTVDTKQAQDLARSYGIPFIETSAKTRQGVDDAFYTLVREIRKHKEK
Sequence of KRAS G12V (P62937 whole entry): as the sequence (P62937 whole entry) above
Sequence of KRAS G13C (P01116 1-169 isoform P01116-2 G13C limits assumed): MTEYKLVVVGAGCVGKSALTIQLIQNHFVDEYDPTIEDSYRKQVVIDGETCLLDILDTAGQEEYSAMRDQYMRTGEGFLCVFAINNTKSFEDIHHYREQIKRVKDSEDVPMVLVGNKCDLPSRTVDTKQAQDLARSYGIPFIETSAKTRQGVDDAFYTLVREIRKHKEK
Sequence of KRAS G13C (P62937 whole entry): as the sequence (P62937 whole entry) above
Sequence of KRAS G13D (P01116 1-169 isoform P01116-2 G13D limits assumed): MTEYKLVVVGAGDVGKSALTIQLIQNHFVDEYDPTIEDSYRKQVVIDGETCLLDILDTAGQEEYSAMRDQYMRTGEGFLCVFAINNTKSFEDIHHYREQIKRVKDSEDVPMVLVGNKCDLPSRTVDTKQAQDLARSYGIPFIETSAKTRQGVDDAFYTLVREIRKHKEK
Sequence of KRAS G13D (P62937 whole entry): as the sequence (P62937 whole entry) above
Sequence of KRAS WT (P01116 1-169 isoform P01116-2 limits assumed): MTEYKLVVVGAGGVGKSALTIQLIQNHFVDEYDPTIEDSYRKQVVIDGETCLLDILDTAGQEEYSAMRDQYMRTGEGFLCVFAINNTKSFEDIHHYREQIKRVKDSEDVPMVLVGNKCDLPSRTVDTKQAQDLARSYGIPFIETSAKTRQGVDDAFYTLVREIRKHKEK
Sequence of KRAS WT (P62937 whole entry): as the sequence (P62937 whole entry) above

Row | Structure (SMILES) | pEC50 (AsPC-1 (K-Ras G12D) [1]; ASPC1, read-out: pERK EC50) | pIC50 (NCI-H358 (K-Ras G12C); [4]) | pEC50 (AsPC-1 (K-Ras G12D) [1]; [5]) | pIC50 (AsPC-1 (K-Ras G12D) [2]; [6]) | pIC50 (NCI-H358 (K-Ras G12C); [7]) | further results
1 | CCn1c(-c2cnccc2COC)c2c3cc(ccc31)-c1cc(O)cc(c1)C[C@H](NC(=O)[C@H](C(C)C)N(C)C(=O)CN(C)C(=O)[C@@H]1N[C@@H]1C1CC1)C(=O)N1CCC[C@H](N1)C(=O)OCC(C)(C)C2 [Example 103] | > 5.30 | 6.00 to 7.00 |  |  |  | pIC50 (AsPC-1 (K-Ras G12D) [2]; [3]): 6.00 to 7.00
2 | CCn1c(-c2cccnc2[C@H](C)OC)c2c3cc(ccc31)-c1cc(O)cc(c1)C[C@H](NC(=O)[C@H](C(C)C)N(C)C(=O)CN(C)C(=O)[C@H]1N[C@@H]1C1CC1)C(=O)N1CCC[C@H](N1)C(=O)OCC(C)(C)C2 [Example 136] | > 5.30 | > 8.00 |  |  |  | pIC50 (KRAS G12S; KRAS G12S FRET data IC50, Ras-Raf disruption): 7.00 to 8.00; pIC50 (KRAS G12C; KRAS G12C FRET data IC50, Ras-Raf disruption): 7.00 to 8.00
3 | CCC(C)N(C)C(=O)c1cncc(-c2c3c4cc(ccc4n2CC)-c2cc(O)cc(c2)C[C@H](NC(=O)[C@H](C(C)C)N(C)C(=O)CN(C)C(=O)[C@H]2CN2)C(=O)N2CCC[C@H](N2)C(=O)OCC(C)(C)C3)c1 (stereo partly drawn) [Example 144] | > 5.30 | 7.00 to 8.00 |  |  |  | pIC50 (AsPC-1 (K-Ras G12D) [2]; [3]): 6.00 to 7.00
4 | CCn1c(-c2cccnc2[C@H](C)OC)c2c3cc(ccc31)-c1cc(O)cc(c1)C[C@H](NC(=O)[C@H](C(C)C)N(C)C(=O)[C@@]1(C)CCCN1C(=O)[C@H]1CN1)C(=O)N1CCC[C@H](N1)C(=O)OCC(C)(C)C2 [Example 239] |  |  | > 5.30 | 6.00 to 7.00 | 7.00 to 8.00 | 
5 | CCn1c(-c2cccnc2[C@H](C)OC)c2c3cc(ccc31)-c1cc(O)cc(c1)C[C@H](NC(=O)[C@H](C(C)C)N(C)C(=O)[C@]1(C)CCCN1C(=O)[C@H]1CN1)C(=O)N1CCC[C@H](N1)C(=O)OCC(C)(C)C2 [Example 243] |  |  | > 5.30 | 6.00 to 7.00 | 6.00 to 7.00 | 
6 | CCn1c(-c2cccnc2[C@H](C)OC)c2c3cc(ccc31)-c1cc(O)cc(c1)C[C@H](NC(=O)[C@H](C(C)C)N(C)C(=O)[C@@H]1CO[C@H](C)CN1C(=O)[C@H]1CN1)C(=O)N1CCC[C@H](N1)C(=O)OCC(C)(C)C2 [Example 248] |  |  | > 5.30 | 6.00 to 7.00 | 7.00 to 8.00 | 
7 | CCn1c(-c2cccnc2[C@H](C)OC)c2c3cc(ccc31)-c1cc(O)cc(c1)C[C@H](NC(=O)[C@H](C(C)C)N(C)C(=O)[C@@H]1CO[C@H](C)CN1C(=O)[C@@H]1CN1)C(=O)N1CCC[C@H](N1)C(=O)OCC(C)(C)C2 [Example 249] |  |  | > 5.30 | 7.00 to 8.00 | 7.00 to 8.00 | 
8 | CCn1c(-c2cccnc2[C@H](C)OC)c2c3cc(ccc31)-c1cc(cc(C(F)F)c1)C[C@H](NC(=O)[C@H](C1CCCC1)N1CC[C@]3(CCN(C(=O)[C@@H]4N[C@@H]4C4CC4)C3)C1)C(=O)N1CCC[C@H](N1)C(=O)OCC(C)(C)C2 [Example 318] |  |  |  | 6.00 to 7.00 | 6.00 to 7.00 | pIC50 (KRAS G12D): 5.00 to 6.00; pIC50 (KRAS G12S; Ras-Raf disruption, read-out: KRAS G12S FRET data IC50): 5.00 to 6.00; pIC50 (KRAS G12V): 5.00 to 6.00; pIC50 (KRAS G13C): 6.00 to 7.00; pIC50 (KRAS G13D): 5.00 to 6.00; pIC50 (KRAS Q61H): 6.00 to 7.00; pIC50 (KRAS WT): 6.00 to 7.00; pIC50 (NRAS G12C): 5.00 to 6.00; pIC50 (NRAS Q61K): 5.00 to 6.00; pIC50 (NRAS Q61R): 5.00 to 6.00; pIC50 (NRAS WT): 5.00 to 6.00; pIC50 (KRAS G12C; Ras-Raf disruption, read-out: KRAS G12C FRET data IC50): 6.00 to 7.00
